Measurements from patent publication US8283339B2, “Vinyl phosphonate lysophosphatidic acid receptor antagonists” (University of Virginia Patent Foundation, priority 2006, dated 2012).
Like-named read-outs stand apart in the source and are kept apart here.

Columns and labels:
[1] = tested on: osteo-tropic subclone of the human breast CA line, MDA MB-231; conditions: athymic (nude) mice injected with MDA MB-231 subclone; as described in Boucharaba et al. (2006); cited from earlier work
[2] = tested on: osteo-tropic subclone of the human breast CA line, MDA MB-231; test: Lytic bone metastasis in athymic (nude) mice; assay type: in vivo, mouse; conditions: athymic (nude) mice injected with MDA MB-231 subclone; treated for two weeks; FIG. 13
Method: Mice are tested for assessing lytic bone metastasis. Athymic (nude) mice were injected with a osteo-tropic subclone of the human breast CA line, MDA MB-231. After two weeks the bones are scanned to assess the cancer in the bone. The cancer is treated for two weeks and the lesions are imaged. […] 103, pp. 9643-9648. The results are illustrated in FIG. 13.

[3] = tested on: Adult male Sprague Dawley rats; test: Chronic constriction injury (CCI) model of neuropathic pain: thermal hyperalgesia and mechanical allodynia; assay type: in vivo, rat
From the text: The chronic constriction injury (CCI) model of neuropathic pain (Bennett and Xie, Pain, 33 p 87-107 (1988)) was used to assess the efficacy of test compound VPC51299 in relieving thermal hyperalgesia and mechanical allodynia. Adult male Sprague Dawley rats were anesthetized and their sciatic nerves exposed at the level of mid-thigh. Four loose ligations of chromic gut suture were placed around the sciatic nerve and the wound was closed. For sham surgeries, the sciatic nerve was mobilized and the wound closed without ligation. The animals' responses to mechanical and thermal stimuli were assessed prior to CCI and at days 1, 3, 5, 7, and 14 after CCI.
Thermal hyperalgesia was measured using a Plantar Test Apparatus (IITC Inc, Woodland Hills, Calif.). Rats were placed on a warmed glass surface, allowed to acclimate, and a thermal stimulus was applied to the plantar surface of the hind paw. Paw withdrawal latency (PWL) is defined as the time from stimulus application to paw withdrawal. Results are illustrated in FIG. 9A.
Mechanical allodynia was measured two ways. First, a size 5.18 Von Frey monofilament (corresponding to 15.0 g.) was applied to the plantar surface of the hind paw (Touch Test Sensory Evaluator Kit from Stoelting Co., Wood Dale, Ill.). The number of paw withdrawals out of 10 three second trials was recorded. Results are illustrated in FIG. 9B. Second, the maximum withdrawal threshold was assessed using an electronic von Frey Anesthesiometer (IITC Inc, Woodland Hills, Calif.). Force was applied to the plantar surface of the hindpaw until the rat withdrew its paw. The maximum force applied to the paw before withdrawal was recorded. Results are illustrated in FIG. 9C.

[4] = tested on: LPA inhibition of adenylyl cyclase activation in rat glioma C62B cells; test: LPA-driven adenylyl cyclase inhibition in rat glioma cells (relief by antagonist); assay type: cell-based; conditions: isoproterenol-stimulated cAMP accumulation, all in a dose-dependent manner, FIG. 3
From the text: FIG. 3 is a graphic representation of LPA-driven adenylyl cyclase inhibition in C6 glioma cells.
Rat glioma C62B cells accumulate cAMP in response to isoproterenol, and this stimulation of adenylyl cyclase is blocked by LPA. As shown, the LPA inhibition of adenylyl cyclase activation is relieved by addition of VPC51299, VPC52172, VPC52173, and VPC52178, all in a dose-dependent manner. Results are illustrated in FIG. 3.

Cc1noc(-c2ccc(CSCCC(=O)O)cc2)c1NC(=O)OC(C)c1ccccc1Cl (stereo not shown) [Kil6425]
size of lytic bone lesions in treated mice [1]: significantly smaller

CCCCCCCCCCCCCCCC(=O)N[C@@H](/C=C/P(=O)(O)O)Cc1ccc(OCc2cc(OCC(F)(F)F)ccn2)cc1 [VPC51299, (3R)-(3-Hexadecanoylamino-4-{4-[4-(2,2,2-trifluoro-ethoxy)-pyridin-2-ylmethoxy]-phenyl}-trans-but-1-enyl)-phosphonic Acid]
size of lytic bone lesions in treated mice [2]: significantly smaller
paw withdrawal latency (thermal stimulus), slower than vehicle treated rats ([3]; day 5, after 5 days of treatment, difference vs vehicle treated rats, Plantar Test): 3.1 s
withdrawal threshold, higher than vehicle treated rats ([3]; day 5, after 5 days of treatment, electronic von Frey Anesthesiometer, difference vs vehicle treated rats): 4.0 g
number of paw withdrawals (out of 10 trials), fewer than vehicle treated rats ([3]; day 5, after 5 days of treatment, size 5.18 Von Frey monofilament (15.0 g), difference vs vehicle treated rats): 3.2 times
efficacy in relieving thermal hyperalgesia and mechanical allodynia associated with CCI ([3]; rats with sciatic nerve ligation (CCI), FIGS. 9A-9C): effective in relieving some of the thermal hyperalgesia and mechanical allodynia
relief of LPA inhibition of adenylyl cyclase activation [4]: relieved

CCCCCCCCCCCC(=O)N[C@@H](/C=C/P(=O)(O)O)Cc1ccc(OCc2cc(OCC(F)(F)F)ccn2)cc1 [VPC52172, (3R)-(3-Dodecanoylamino-4-{4-[4-(2,2,2-trifluoro-ethoxy)-pyridin-2-ylmethoxy]-phenyl}-trans-but-1-enyl)-phosphonic Acid]
relief of LPA inhibition of adenylyl cyclase activation [4]: relieved

CCCCCCCCCC(=O)N[C@@H](/C=C/P(=O)(O)O)Cc1ccc(OCc2cc(OCC(F)(F)F)ccn2)cc1 [VPC52173, (3R)-(3-Decanoylamino-4-{4-[4-(2,2,2-trifluoro-ethoxy)-pyridin-2-ylmethoxy]-phenyl}-trans-but-1-enyl)-phosphonic Acid]
relief of LPA inhibition of adenylyl cyclase activation [4]: relieved

CCCCCCCC(=O)N[C@@H](/C=C/P(=O)(O)O)Cc1ccc(OCc2cc(OCC(F)(F)F)ccn2)cc1 [VPC52178, (1R)-(3-octanoylamino-4-{4-[4-(2,2,2-trifluoro-ethoxy)-pyridin-2-ylmethoxy]-phenyl}-trans-but-1-enyl)-phosphonic Acid]
relief of LPA inhibition of adenylyl cyclase activation [4]: relieved
